Laboratory results reported in patent US20190192697A1, “CHEMICAL PROBES OF LYSYL OXIDASK-LIKE 2 AND USES THEREOF” (PHARMAKEA, INC., priority 2016, published 2019).
Structures can show the parent of a compound that is named as a salt. Where two headings read alike, the source gives them in different places.

Assays:
[1] = molecular target: T1, LOXL2 (Homo sapiens, UniProt Q9Y4K0); test: Western-based quantification of free LOXL2 captured with biotinylated LOXL2 inhibitor (Compound 1-1); format: binding; details: pre-incubation with 1-13a 1-2 hrs at 37° C., capture with Compound 1-1
T1 sequence (Q9Y4K0 26-774): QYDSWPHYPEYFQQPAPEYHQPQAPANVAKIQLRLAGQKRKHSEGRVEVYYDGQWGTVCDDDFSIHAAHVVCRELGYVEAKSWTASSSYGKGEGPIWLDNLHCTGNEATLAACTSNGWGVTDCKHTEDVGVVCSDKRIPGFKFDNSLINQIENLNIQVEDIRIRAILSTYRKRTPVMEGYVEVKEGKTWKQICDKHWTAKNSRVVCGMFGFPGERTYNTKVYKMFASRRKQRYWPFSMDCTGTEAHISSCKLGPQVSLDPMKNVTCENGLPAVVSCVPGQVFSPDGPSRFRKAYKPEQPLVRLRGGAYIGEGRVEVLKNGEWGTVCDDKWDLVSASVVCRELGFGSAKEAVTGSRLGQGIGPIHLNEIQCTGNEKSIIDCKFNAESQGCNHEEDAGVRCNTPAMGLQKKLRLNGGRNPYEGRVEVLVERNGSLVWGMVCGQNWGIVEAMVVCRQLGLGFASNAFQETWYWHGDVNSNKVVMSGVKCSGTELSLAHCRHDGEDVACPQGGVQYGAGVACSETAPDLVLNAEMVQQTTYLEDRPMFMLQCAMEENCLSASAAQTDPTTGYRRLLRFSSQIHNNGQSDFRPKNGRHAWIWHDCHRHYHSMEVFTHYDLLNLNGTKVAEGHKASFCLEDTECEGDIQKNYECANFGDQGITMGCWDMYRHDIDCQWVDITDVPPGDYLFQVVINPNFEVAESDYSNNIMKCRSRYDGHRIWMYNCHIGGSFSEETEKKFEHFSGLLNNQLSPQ
Description: To quantify LOXL2 using a Western-based assay, a suitable amount of the LOXL2 inhibitor 1-13a, such as 10 or DMSO was pre-incubated with a suitable amount of LOXL2, such as 1 ng, 10 ng, or 100 ng, for a suitable amount of time at an appropriate temperature, such as 1-2 hrs at 37° C. Then an appropriate amount of the biotinylated labeled LOXL2 inhibitor (Compound 1-1), such as 5, was added and was allowed to incubate with the LOXL2 for a suitable amount of time at an appropriate temperature, such as 1 hr at 37° C. Then the biotinylated labeled LOXL2 inhibitor (Compound 1-1)/LOXL2 complex was isolated with Streptavidin coated magnetic beads. After incubation with the streptavidin magnetic beads for an appropriate amount of time, a magnet (for example, DynaMag™-2 Magnet) was used to capture the biotinylated labeled LOXL2 inhibitor (Compound 1-1)/LOXL2 bead bound complex and the supernatant was removed. […]
A Western Blot is then performed with an anti-LOXL2 antibody to quantify the amount of LOXL2 bound to the biotinylated LOXL2 inhibitor (Compound 1-1).

[2] = Plasma drug concentration in healthy human subjects after single oral dose; format: in vivo; details: for concentration at 2 h / concentration at 24 h: both sexes, human, plasma, read-out: Ave plasma Cmpd 2 conc; for concentration at 2 h: 2 hour post-dose
Description: The amount of free/unbound LOXL2 was evaluated in 8 mL plasma from six healthy subjects at pre-dose or at 2, 24 or 48 hours after a single oral dose of Compound 1-13A and in two healthy subjects dosed with placebo. On average, the amount of free/unbound LOXL2 was decreased by approximately 60% at 2 hours post-dosing in the subjects receiving 150 mg of Compound 1-13a (see FIG. 7).
Healthy human subjects (male and female) were dosed with compound 2 in solution. Blood samples were drawn at regular intervals and the plasma isolated and analyzed for compound 1-13a concentration as well as LOXL2 target engagement. Placebo data is the average of all the placebo subjects in the single dose study (n=10).

[3] = molecular target: T1, LOXL2; test: Human LOXL2 amine oxidase activity assay (Amplex Red); format: biochemical; design: expressed in transfected cells; host or cells: CHO cells stably expressing human LOXL2; 10-20x concentrated conditioned media; details: concentrated conditioned media from CHO cells expressing human LOXL2; 2 h at 37° C. pre-incubation
Description: LOXL2 amine oxidase activity is evaluated by measuring Amplex Red fluorescence using 10-20× concentrated conditioned media from CHO cells stably expressing human LOXL2. To assay for amine oxidase activity, 10 μL of the concentrated conditioned media is incubated with 2 μL of test compound in DMSO and 73 μL Assay Buffer (50 mM Borate Buffer, pH8) for 2 h at 37° C. After the 2 h incubation, 5 μL of 10 mM 1,5-diaminopentane (DAP) diluted in Assay Buffer and 10 μL of Amplex Red Mix (8.5 μL Assay Buffer+0.5 μL of 10 mM Amplex Red+1 μL of 500 U/mL Horseradish Peroxidase) are added and the plate mixed and immediately placed on the FlexStaion for fluorescence measurements. Fluorescence is read in kinetic mode every 2 min for 1 hour at excitation=544 nm and emission=590 nm. The amine oxidase activity is calculated from the slope of the linear portion of the curve.

NCc1cc(Oc2cccc(C(=O)N3C[C@@H](O)[C@H](F)C3)c2)nc(C(F)(F)F)c1 [Compound 1-13a, (R,R)-trans-(3-((4-(Aminomethyl)-6-(trifluoromethyl)pyridin-2-yl)oxy)phenyl)(3-fluoro-4-hydroxypyrrolidin-1-yl)methanone hydrochloride]
reduction of unbound/free LOXL2 captured by the biotinylated LOXL2 inhibitor [1]: 70-100%
Ave plasma Cmpd 2 conc ([2]; 150 mg single oral dose, 24 hour post-dose): BLOQ
concentration at 2 h ([2]; 150 mg single oral dose): 966 nM
concentration at 2 h ([2]; 450 mg single oral dose): 4380 nM
concentration at 24 h ([2]; 450 mg single oral dose, 24 hour post-dose): 3.5 nM
concentration at 2 h ([2]; 1000 mg single oral dose): 12900 nM
concentration at 24 h ([2]; 1000 mg single oral dose, 24 hour post-dose): 8 nM
IC50 [3]: < 300 nM
